Laboratory results taken from patent publication US9879243B2, “Culture medium for cell growth and transfection” (LIFE TECHNOLOGIES CORPORATION, priority 2001, dated 2018).

Assays:
Sp2/0 cells = assay: Effect of replacement compounds on the growth of Sp2/0 cells in CD Hybridoma medium without transferrin, three passages; type: cell-based; details: third passage
Description: The ability of replacement compounds to support cellular growth in the absence of transferrin was evaluated using Sp2/0 cells maintained in CD Hybridoma medium (Invitrogen Corporation, Carlsbad, Calif.).
Stock cultures containing 5 μg/mL human holo-transferrin were prepared in CD Hybridoma medium. For replacement compound evaluation, Sp2/0 cells were established at an initial viable cell density of 0.5×10^5 cells/mL in stationary culture using 75 cm^2 tissue culture flasks in a final volume of 20 mL. All cultures were maintained at 37° C. in humidified air containing 8% CO2. To eliminate transferrin carry-over effects, cells were subcultured at the same seeding density at 4 day intervals for a total of three passages. Positive control cultures contained 5 μg/mL human holo-transferrin while negative control cultures were established in the absence of either transferrin or replacement compound. Replacement compound stocks were prepared at 0.1M-0.2M in ddH2O and solubilized when necessary using 5N NaOH or HCl. Iron complexes were established using 0.2M replacement compound and iron stocks mixed 1:1 (v/v) and incubated for 5-10 minutes at 22° C. All solutions containing replacement compounds were filter sterilized using a 0.22 μm Millex-GV filter prior to addition to transferrin and serum-free media.
Except where otherwise noted, replacement compounds were evaluated either alone or in combination with ferric chloride or ferrous sulfate at 25 μM, 50 μM and 100 μM. Values in the table represent the mean percentage of control growth for duplicate cultures determined at the third passage.
When added to the medium formulation un-complexed, the replacement compound is listed alone, when added as a complex with a transition metal, the source of the transition metal is listed with the replacement compound.

CHO cells = assay: Effect of replacement compounds on the growth of CHO cells in CD CHO medium without transferrin, three passages; type: cell-based, Chinese hamster; details: third passage
Description: The ability of replacement compounds to support cellular growth in the absence of transferrin was evaluated using CHO cells maintained in CD CHO medium (Invitrogen Corporation, Carlsbad, Calif., the formulation of which is described in WO 98/08934). Stock cultures containing 5 μg/mL human holo-transferrin were prepared in CD CHO medium. For replacement compound evaluation, CHO cells were established in 125 mL shaker flasks at an initial viable seeding density of 1×10^5 cells/mL in a final volume of 20 mL. All cultures were maintained at 37° C. in humidified air containing 8% CO2. To eliminate transferrin carry-over effects, cells were subcultured at 4 day intervals for a total of three passages. Positive control cultures contained 5 μg/mL human holo-transferrin while negative control cultures were established in the absence of either transferrin or replacement compound. Replacement compound stocks were prepared at 0.1M-0.2M in ddH2O and solubilized when necessary using 5N NaOH or HCl. Iron complexes were established using 0.2M replacement compound and iron stocks mixed 1:1 (v/v) and incubated for 5-10 minutes at 22° C. All solutions containing replacement compounds were filter sterilized using a 0.22 μm Millex-GV filter prior to addition to transferrin and serum-free media.
(§1) Except where noted, replacement compounds were evaluated either alone or in combination with ferric chloride or ferrous sulfate at 25 μM, 50 μM and 100 μM. Values in the table represent the mean percentage of control growth for duplicate cultures determined at the third passage.
The ability of various replacement compounds to substitute for transferrin in the culture of CHO cells was determined. When added to the medium formulation un-complexed, the replacement compound is listed alone, when added as a complex with a transition metal, the source of the transition metal is listed with the metal binding compound.

293 cells = assay: Effect of replacement compounds on the growth of 293 cells in 293 SFM without transferrin, three passages; type: cell-based, human; details: third passage, control 5 μg/mL human holo-transferrin
Description: Semi-confluent adherent cultures of 293 Cells (ATCC, CRL 1573) are readily adapted to suspension culture. The cells are first detached with a solution of Trypsin-EDTA (0.05% Trypsin, 0.53 mM Na4EDTA), and then resuspended in conventional medium supplemented with 10% FBS to inhibit the trypsin. The resuspended cells are centrifuged at 200×g for five minutes.
The initial seeding density of the 293 cells after conversion to suspension culture is 1×10^6 cells/mL. The cells are shaken on a rotary shaker at 150 rpm in a 37° C. incubator equilibrated with 8% CO2-92% air. […] Because 293 cells have a tendency to aggregate, the cells can be vortexed vigorously for approximately 45 seconds to obtain a predominantly single cell suspension at the time of passaging and counting. After several passages in suspension culture, the maximum achievable density can be determined.
For replacement compound evaluation, 293 cells were established in 125 mL shaker flasks at an initial viable seeding density of 2×10^5 cells/mL in a final volume of 20 mL. All cultures were maintained at 37° C. in humidified air containing 8% CO2. To eliminate transferrin carry-over effects, cells were subcultured at 4 day intervals for a total of three passages. At each subculturing, cells were seeded at a density of 2×10^5 cells/mL. Positive control cultures contained 5 μg/mL human holo-transferrin while negative control cultures were established in the absence of either transferrin or replacement compound. Replacement compound stocks were prepared at 0.1M-0.2M in ddH2O and solubilized when necessary using 5N NaOH or HCl. Iron complexes were established using 0.2 M replacement compound and iron stocks mixed 1:1 (v/v) and incubated for 5-10 minutes at 22° C. All solutions containing replacement compounds were filter sterilized using a 0.22 μm Millex-GV filter prior to addition to transferrin and serum-free media.
as §1, with “μM. When used in combination, the replacement compounds were used in equimolar concentration with iron ions.” for “μM.”, “Table 4” for “the table”
When added to the medium formulation uncomplexed, the replacement compound is listed alone, when added as a complex with a transition metal, the source of the transition metal is listed with the replacement compound.

[1] = 25 μM, control 5 μg/mL human holo-transferrin
[2] = 25 μM, iron equimolar where combined

| Compound | mean percentage of control growth (Sp2/0 cells; [1]) | mean percentage of control growth (Sp2/0 cells; 50 μM) | mean percentage of control growth (Sp2/0 cells; 100 μM) | mean percentage of control growth (CHO cells; [1]) | mean percentage of control growth (CHO cells; 50 μM) | mean percentage of control growth (CHO cells; 100 μM) | mean percentage of control growth (293 cells; [2]) | mean percentage of control growth (293 cells; 50 μM) | mean percentage of control growth (293 cells; 100 μM) |
| --- | --- | --- | --- | --- | --- | --- | --- | --- | --- |
| O=c1cc(CO)occ1O [Kojic Acid] | 0 percentage of control growth | 0 percentage of control growth | 0 percentage of control growth | 0 percentage of control growth | 0 percentage of control growth | 0 percentage of control growth | – | – | – |
| [Cl][Fe]([Cl])[Cl].[O-][n+]1cccc(O)c1 [3-Hydroxypyridine-N-Oxide•Ferric Chloride] | 55 percentage of control growth | 54 percentage of control growth | 57 percentage of control growth | 77 percentage of control growth | 66 percentage of control growth | 101 percentage of control growth | 77 percentage of control growth | 72 percentage of control growth | 81 percentage of control growth |
| Kojic Acid•Ferric Chloride | 0 percentage of control growth | 0 percentage of control growth | 0 percentage of control growth | 89 percentage of control growth | 88 percentage of control growth | 85 percentage of control growth | – | – | – |
| 4-Pyridoxic Acid•Ferric Chloride | 40 percentage of control growth | 73 percentage of control growth | 76 percentage of control growth | 55 percentage of control growth | 63 percentage of control growth | 100 percentage of control growth | 109 percentage of control growth | 85 percentage of control growth | 99 percentage of control growth |
| Serine Hydroxamate•Ferric Chloride | 46 percentage of control growth | 66 percentage of control growth | 62 percentage of control growth | 106 percentage of control growth | 121 percentage of control growth | 124 percentage of control growth | 68 percentage of control growth | 65 percentage of control growth | 51 percentage of control growth |
| Sorbitol•Ferric Chloride | 94 percentage of control growth | 55 percentage of control growth | 60 percentage of control growth | 100 percentage of control growth | 107 percentage of control growth | 112 percentage of control growth | – | – | – |
| Cysteine•Ferrous Sulfate | 85 percentage of control growth | 79 percentage of control growth | 67 percentage of control growth | 83 percentage of control growth | 64 percentage of control growth | 45 percentage of control growth | – | – | – |
| Nicotinic Acid-N-Oxide•Ferric Chloride | – | – | – | 60 percentage of control growth | 84 percentage of control growth | 105 percentage of control growth | 104 percentage of control growth | 80 percentage of control growth | 79 percentage of control growth |
| O=C(O)c1ccccn1.[Cl][Fe]([Cl])[Cl] [2-Pyridinecarboxylic Acid•Ferric Chloride] | 0 percentage of control growth | 30 percentage of control growth | 48 percentage of control growth | 88 percentage of control growth | 89 percentage of control growth | 100 percentage of control growth | – | – | – |
